Experimental data from patent publication EP0908457B1, “3-(1,2-benzisothiazol- and isoxazol-5-Y1)-2,4(1H,3H)-pyrimidinedione or thione and 3-(1,2-benzisothiazol- and isoxazol-5-y1)-4(3H)-pyrimidinone or thione herbicidal agents” (BASF AKTIENGESELLSCHAFT, priority 1997, dated 1999).

Key:
[1] = test system: Monochoria vaginalis, Presl.; assay: Preemergence weed control under flooded paddy conditions, MOOVA (Monochoria); format: in vivo; details: flooded paddy, rated three to four weeks after treatment; as to herbicidal effect rating, MOOVA: meaning of each grade not given here
Sagittaria pygmaea, L. = assay: Preemergence weed control under flooded paddy conditions, SAGPY (Arrowhead (Pygmaea)); format: in vivo; details: flooded paddy, rated three to four weeks after treatment; as to herbicidal effect rating, SAGPY: meaning of each grade not given here
[2] = test system: Oryza sativa, (L.) Tebonnet; assay: Rice tolerance to post-transplant applications under flooded paddy conditions (Example 187), ORYSAT (Rice, Tebonnet); details: rated three to four weeks after treatment; as to herbicidal effect rating ORYSAT: meaning of each grade not given here
Cyperus iria = assay: Preemergence weed control under flooded paddy conditions, CYPIR (Rice Flatsedge); format: in vivo; details: flooded paddy, rated three to four weeks after treatment; as to herbicidal effect rating, CYPIR: meaning of each grade not given here
[3] = test system: Echinochloa oryzoides (Ard.) Fritsch.; assay: Preemergence weed control under flooded paddy conditions, ECHORC (Watergrass (Calif.)); format: in vivo; details: flooded paddy, rated three to four weeks after treatment; as to herbicidal effect rating, ECHORC: meaning of each grade not given here
[4] = test system: Cyperus serotinus, Rottb.; assay: Preemergence weed control under flooded paddy conditions, CYPSE (Flatsedge); format: in vivo; details: rated three to four weeks after treatment; as to herbicidal effect rating, CYPSE: meaning of each grade not given here
[5] = 0.0313 kg/ha, preemergence weeds
[6] = 0.0625 kg/ha, preemergence weeds
[7] = 0.1250 kg/ha, preemergence weeds
[8] = 0.2500 kg/ha, preemergence weeds
[9] = Rate 0.0320 kg/ha, preemergence
[10] = Rate 0.0620 kg/ha, preemergence
[11] = Rate 0.1250 kg/ha, preemergence
[12] = Rate 0.2500 kg/ha, preemergence

Cn1c(C(F)(F)F)cc(=O)n(-c2ccc3snc(C(=O)NS(N)(=O)=O)c3c2)c1=O [Example 472, 1,2-Benzisothiazole-3-carboxamide, 5-[3,6-dihydro-3-methyl-2,6-dioxo-4-(trifluoromethyl)-1(2H)-pyrimidinyl]-N-sulfamoyl-]
3.0: SAGPY herbicidal rating (Sagittaria pygmaea, L.; 0.2500 kg/ha, preemergence) | ORYSAT herbicidal rating (rice tolerance) ([2]; 0.1250 kg/ha) | ECHORC herbicidal rating ([3]; 0.0320 kg/ha, preemergence) | ECHORC herbicidal rating ([3]; 0.0620 kg/ha, preemergence)
4.0: CYPIR herbicidal rating (Cyperus iria; 0.0320 kg/ha, preemergence) | CYPIR herbicidal rating (Cyperus iria; 0.0620 kg/ha, preemergence) | ECHORC herbicidal rating ([3]; 0.1250 kg/ha, preemergence) | ECHORC herbicidal rating ([3]; 0.2500 kg/ha, preemergence)
1.0: ORYSAT herbicidal rating (rice tolerance) ([2]; 0.0620 kg/ha)
7.0: MOOVA herbicidal rating ([1]; 0.1250 kg/ha, preemergence) | MOOVA herbicidal rating ([1]; 0.2500 kg/ha, preemergence)
2.0: SAGPY herbicidal rating (Sagittaria pygmaea, L.; 0.1250 kg/ha, preemergence)
5.0: MOOVA herbicidal rating ([1]; 0.0320 kg/ha, preemergence) | CYPIR herbicidal rating (Cyperus iria; 0.1250 kg/ha, preemergence)
6.0: MOOVA herbicidal rating ([1]; 0.0620 kg/ha, preemergence) | ORYSAT herbicidal rating (rice tolerance) ([2]; 0.2500 kg/ha) | CYPIR herbicidal rating (Cyperus iria; 0.2500 kg/ha, preemergence) | CYPSE herbicidal rating ([4]; 0.1250 kg/ha, preemergence)
0.0: SAGPY herbicidal rating (Sagittaria pygmaea, L.; 0.0320 kg/ha, preemergence) | SAGPY herbicidal rating (Sagittaria pygmaea, L.; 0.0620 kg/ha, preemergence) | ORYSAT herbicidal rating (rice tolerance) ([2]; 0.0320 kg/ha) | CYPSE herbicidal rating ([4]; 0.0320 kg/ha, preemergence)
9.0: CYPSE herbicidal rating ([4]; 0.2500 kg/ha, preemergence)

COCC(C)OC(=O)COc1ccc(C)cc1-c1nsc2ccc(-n3c(=O)cc(C(F)(F)F)n(C)c3=O)cc12 (racemic) [Example 192, 1-Methyl-2-methoxyethyl {{2-{5-[3,6-dihydro-3-methyl-2,6-dioxo-4-(trifluoromethyl)-1(2H)-pyrimidinyl]-1,2-benzisothiazol-3-yl}-p-tolyl}oxy}acetate, DL-]
3.0: herbicidal effect rating, ORYSAT (rice tolerance) ([2]; 0.1250 kg/ha)
7.0: herbicidal effect rating, CYPIR (Cyperus iria; [8])
4.0: herbicidal effect rating, ORYSAT (rice tolerance) ([2]; 0.2500 kg/ha) | herbicidal effect rating, ECHORC [3, 6]
9.0: herbicidal effect rating, MOOVA [1, 5] | herbicidal effect rating, MOOVA [1, 6] | herbicidal effect rating, MOOVA [1, 7] | herbicidal effect rating, MOOVA [1, 8] | herbicidal effect rating, SAGPY (Sagittaria pygmaea, L.; [8]) | herbicidal effect rating, ECHORC [3, 7] | herbicidal effect rating, ECHORC [3, 8]
1.0: herbicidal effect rating, ORYSAT (rice tolerance) ([2]; 0.0313 kg/ha) | herbicidal effect rating, ECHORC [3, 5]
2.0: herbicidal effect rating, SAGPY (Sagittaria pygmaea, L.; [7]) | herbicidal effect rating, ORYSAT (rice tolerance) ([2]; 0.0625 kg/ha) | herbicidal effect rating, CYPIR (Cyperus iria; [7])
0.0: herbicidal effect rating, SAGPY (Sagittaria pygmaea, L.; [5]) | herbicidal effect rating, SAGPY (Sagittaria pygmaea, L.; [6]) | herbicidal effect rating, CYPIR (Cyperus iria; [5]) | herbicidal effect rating, CYPIR (Cyperus iria; [6]) | herbicidal effect rating, CYPSE [4, 5] | herbicidal effect rating, CYPSE [4, 6] | herbicidal effect rating, CYPSE [4, 7]

COc1noc2ccc(-n3c(=O)cc(C(F)(F)F)n(C)c3=O)cc12 [Example 42, 3-(3-Methoxy-1,2-benzisoxazol-5-yl)-1-methyl-6-(trifluoromethyl)-2,4(1H,3H)-pyrimidinedione]
0.0: herbicidal effect rating, MOOVA ([1]; 0.0313 kg/ha, preemergence) | herbicidal effect rating, MOOVA ([1]; 0.0625 kg/ha, preemergence) | herbicidal effect rating, MOOVA ([1]; 0.1250 kg/ha, preemergence) | herbicidal effect rating, MOOVA ([1]; 0.2500 kg/ha, preemergence) | herbicidal effect rating, SAGPY (Sagittaria pygmaea, L.; 0.0313 kg/ha, preemergence) | herbicidal effect rating, SAGPY (Sagittaria pygmaea, L.; 0.0625 kg/ha, preemergence) | herbicidal effect rating, SAGPY (Sagittaria pygmaea, L.; 0.1250 kg/ha, preemergence) | herbicidal effect rating, SAGPY (Sagittaria pygmaea, L.; 0.2500 kg/ha, preemergence) | herbicidal effect rating, ORYSAT (rice tolerance) ([2]; 0.0313 kg/ha) | herbicidal effect rating, ORYSAT (rice tolerance) ([2]; 0.0625 kg/ha) | herbicidal effect rating, ORYSAT (rice tolerance) ([2]; 0.1250 kg/ha) | herbicidal effect rating, ORYSAT (rice tolerance) ([2]; 0.2500 kg/ha) | herbicidal effect rating, CYPIR (Cyperus iria; 0.0313 kg/ha, preemergence) | herbicidal effect rating, CYPIR (Cyperus iria; 0.0625 kg/ha, preemergence) | herbicidal effect rating, CYPIR (Cyperus iria; 0.1250 kg/ha, preemergence) | herbicidal effect rating, CYPIR (Cyperus iria; 0.2500 kg/ha, preemergence) | herbicidal effect rating, ECHORC ([3]; 0.0313 kg/ha, preemergence) | herbicidal effect rating, ECHORC ([3]; 0.0625 kg/ha, preemergence) | herbicidal effect rating, ECHORC ([3]; 0.1250 kg/ha, preemergence) | herbicidal effect rating, ECHORC ([3]; 0.2500 kg/ha, preemergence) | herbicidal effect rating, CYPSE ([4]; 0.0313 kg/ha, preemergence) | herbicidal effect rating, CYPSE ([4]; 0.0625 kg/ha, preemergence) | herbicidal effect rating, CYPSE ([4]; 0.1250 kg/ha, preemergence) | herbicidal effect rating, CYPSE ([4]; 0.2500 kg/ha, preemergence)

CC(C)C=C(C#N)c1nsc2ccc(-n3c(=O)cc(C(F)(F)F)n(C)c3=O)cc12 [Example 591, 1,2-Benzisothiazole-3-acetonitrile, 5-[3,6-dihydro-3-methyl-2,6-dioxo-4-(trifluoromethyl)-1(2H)-pyrimidinyl]-alpha-(2-methylpropylidene)-]
0.0: herbicidal effect rating, SAGPY (Sagittaria pygmaea, L.; [9]) | herbicidal effect rating, CYPSE [4, 9] | herbicidal effect rating, CYPSE [4, 11]
7.0: herbicidal effect rating, MOOVA [1, 9] | herbicidal effect rating, SAGPY (Sagittaria pygmaea, L.; [11]) | herbicidal effect rating, SAGPY (Sagittaria pygmaea, L.; [12]) | herbicidal effect rating, CYPIR (Cyperus iria; [11]) | herbicidal effect rating, CYPIR (Cyperus iria; [12]) | herbicidal effect rating, ECHORC [3, 11]
9.0: herbicidal effect rating, MOOVA [1, 10] | herbicidal effect rating, MOOVA [1, 11] | herbicidal effect rating, MOOVA [1, 12] | herbicidal effect rating, ECHORC [3, 12]
5.0: herbicidal effect rating ORYSAT ([2]; Rate 0.2500 kg/ha)
4.0: herbicidal effect rating ORYSAT ([2]; Rate 0.0620 kg/ha) | herbicidal effect rating ORYSAT ([2]; Rate 0.1250 kg/ha) | herbicidal effect rating, CYPIR (Cyperus iria; [10])
3.0: herbicidal effect rating, SAGPY (Sagittaria pygmaea, L.; [10]) | herbicidal effect rating, CYPIR (Cyperus iria; [9]) | herbicidal effect rating, ECHORC [3, 9] | herbicidal effect rating, ECHORC [3, 10]
2.0: herbicidal effect rating ORYSAT ([2]; Rate 0.0320 kg/ha)

CCOP(=O)(Cc1nsc2cc(F)c(-n3c(=O)cc(C(F)(F)F)n(C)c3=O)cc12)OCC [Example 377, 1,2-Benzisothiazole-3-methanephosphonic acid, 5-[3,6-dihydro-3-methyl-2,6-dioxo-4-(trifluoromethyl)-1(2H)-pyrimidinyl]-6-fluoro-, diethyl ester]
2.0: herbicidal effect rating, CYPIR (Cyperus iria; [9]) | herbicidal effect rating, ECHORC [3, 9]
9.0: herbicidal effect rating, MOOVA [1, 9] | herbicidal effect rating, MOOVA [1, 10] | herbicidal effect rating, MOOVA [1, 11] | herbicidal effect rating, MOOVA [1, 12] | herbicidal effect rating, SAGPY (Sagittaria pygmaea, L.; [12]) | herbicidal effect rating ORYSAT ([2]; Rate 0.2500 kg/ha) | herbicidal effect rating, ECHORC [3, 12]
4.0: herbicidal effect rating, SAGPY (Sagittaria pygmaea, L.; [10])
1.0: herbicidal effect rating, CYPSE [4, 9]
8.0: herbicidal effect rating ORYSAT ([2]; Rate 0.1250 kg/ha) | herbicidal effect rating, CYPIR (Cyperus iria; [12])
3.0: herbicidal effect rating, CYPIR (Cyperus iria; [10]) | herbicidal effect rating, CYPSE [4, 10]
4.5: herbicidal effect rating, CYPIR (Cyperus iria; [11])
5.0: herbicidal effect rating, ECHORC [3, 10] | herbicidal effect rating, CYPSE [4, 11]
6.5: herbicidal effect rating ORYSAT ([2]; Rate 0.0620 kg/ha)
0.0: herbicidal effect rating, SAGPY (Sagittaria pygmaea, L.; [9])
7.0: herbicidal effect rating, ECHORC [3, 11]
5.5: herbicidal effect rating ORYSAT ([2]; Rate 0.0320 kg/ha)
8.5: herbicidal effect rating, SAGPY (Sagittaria pygmaea, L.; [11]) | herbicidal effect rating, CYPSE [4, 12]

CCCS(=O)(=O)NC(=O)C(C)Oc1ccc(C)cc1-c1nsc2ccc(-n3c(=O)cc(C(F)(F)F)n(C)c3=O)cc12 (centres unmarked) [Example 569, Propionamide, 2-{{2-{5-[3,6-dihydro-3-methyl-2,6-dioxo-4-(trifluoromethyl)-1(2H)-pyrimidinyl]-1,2-benzisothiazol-3-yl}-p-tolyl}oxy}-N-(propyl-sulfonyl)-]
2.0: herbicidal effect rating, ECHORC [3, 9]
6.0: herbicidal effect rating, MOOVA [1, 10] | herbicidal effect rating, MOOVA [1, 11] | herbicidal effect rating, MOOVA [1, 12]
5.0: herbicidal effect rating, ECHORC [3, 11] | herbicidal effect rating, ECHORC [3, 12]
1.0: herbicidal effect rating ORYSAT ([2]; Rate 0.2500 kg/ha)
9.0: herbicidal effect rating, SAGPY (Sagittaria pygmaea, L.; [12])
4.0: herbicidal effect rating, MOOVA [1, 9] | herbicidal effect rating, ECHORC [3, 10]
0.0: herbicidal effect rating, SAGPY (Sagittaria pygmaea, L.; [9]) | herbicidal effect rating, SAGPY (Sagittaria pygmaea, L.; [10]) | herbicidal effect rating, SAGPY (Sagittaria pygmaea, L.; [11]) | herbicidal effect rating ORYSAT ([2]; Rate 0.0320 kg/ha) | herbicidal effect rating ORYSAT ([2]; Rate 0.0620 kg/ha) | herbicidal effect rating ORYSAT ([2]; Rate 0.1250 kg/ha) | herbicidal effect rating, CYPIR (Cyperus iria; [9]) | herbicidal effect rating, CYPIR (Cyperus iria; [10]) | herbicidal effect rating, CYPIR (Cyperus iria; [11]) | herbicidal effect rating, CYPIR (Cyperus iria; [12]) | herbicidal effect rating, CYPSE [4, 9] | herbicidal effect rating, CYPSE [4, 10] | herbicidal effect rating, CYPSE [4, 11] | herbicidal effect rating, CYPSE [4, 12]
